Consider four molecules from patent US7067520B2, “Preventive or therapeutic medicines for diabetes containing fused-heterocyclic compounds or their salts” (Ishihara Sangyo Kaisha, Ltd., priority 2000, dated 2006).

The test system of one series is L6 cells. Put plainly: Glucose uptake test by L6 cells. It is filed as cell-based. As to conditions: Rattus norvegicus, 1 hour, 2-deoxy-[3H]-glucose uptake, control (MEM solvent alone) = 100%, read-out: Ratio activity (%); for activity at 10 µg/mL: treatment concentration 10 μg/ml; for activity at 100 µg/mL: treatment concentration 100 μg/ml. The procedure:
Glucose Uptake Test by L6 Cells
Each of compounds under test was applied to L6 cells (rat cells originally derived from skeletal muscles) by the following method to measure the stimulating effect on glucose uptake. Namely, L6 cells were suspended in α-minimum essential medium (hereinafter referred to simply as MEM) containing 10% fetal bovine serum (hereinafter referred to simply as FBS), and inoculated into a 96-well plastic plate in an amount of 5×10^4 cells/well and cultivated in an incubator (5% carbon dioxide gas, 37° C.) until the cells grew all over the well. Then, the culture medium was switched to MEM solution containing 2% BS, followed by cultivation further for from 7 to 10 ays (the culture medium was exchanged every three days) to differentiate the cells into skeletal muscle cells. Then, the culture medium was replaced with MEM solution without FBS, followed by cultivation for three hours, and then the compound under test prepared to a treatment concentration (diluted with MEM solution without FBS) was reacted with the skeletal muscle cells at 37° C. for 1 hour. The cells were washed with Krebs-Henseleit-Ringer buffer solution (hereinafter referred to simply as KHR buffer solution), and 2-deoxy-[^3H]-glucose was added to the cells in the KHR buffer solution, followed by treatment at 37° C. for 10 minutes. The treatment solution was removed, the cells were washed with the KHR buffer solution, then the cells were dissolved in a 1N sodium hydroxide solution in an appropriate amount, and the [^3H] radio activity was measured by means of a liquid scintillation counter (cpm) The percentage of the glucose uptake was represented by the percentage of radio activity when the compound under test was applied, taking the radio activity of the control (the MEM solvent alone was applied) as 100%. Each of the compounds as identified in Table 27 was used for treatment at a concentration of each of 10 μg/ml and 100 μg/ml to examine the stimulating effect on glucose uptake.

The next series relates to KK-Ay/Ta mice. Briefly: Test for hypoglycemic effect in KK-Ay/Ta mice. It is filed as in vivo. The following applies: 50 mg/kg single oral dose, percentage to level before administration, significant vs vehicle control (P≦0.05). The procedure: Using KK-Ay/Ta mice (purchased from CLEA Japan, Inc.) as spontaneous diabetic type II, the hypoglycemic effect of each of compounds under test was confirmed by the following method.
Male KK-Ay/Ta mice sufficiently preliminarily bred and acclimatized were classified into groups, each consisting of six mice, and each of the compounds under test was administered. Each of the compounds under test as suspended in 0.5% carboxymethyl cellulose (manufactured by Nacalai Tesque), and each compound was orally administered singly in a dose of 50 mg/kg (10 ml/kg) by means of an oral conductor. At the same time, as a group of vehicle control, 0.5% carboxymethyl cellulose was administered in the same volume (10 ml/kg) as for the group of administration of compound under test.
Collection of blood was carried out by the following method before the administration of each of the compounds under test or the vehicle, and at the time as identified in Table 28 after the administration. The tail vein of each mouse was shallowly cut by the edge of a razor to cause bleeding in an amount of blood of from 10 to 20 μL, and the blood was collected by a micropipet. The collected blood samples were immediately mixed with a heparin solution (20 U/ml) (manufactured by Mochida Yakuhin) in the same amount as the respective collected blood samples, and subjected to centrifugation at 4° C. for 5 minutes (10,000 rpm) by means of a cooling centrifugal machine. The plasma after the centrifugation was obtained as a sample for blood glucose level measurement.
The blood glucose level was measured by means of glucose oxidase method, and measured by using a commercially available assay kit (Glucose CII TEST WAKO, manufactured by Wako Pure Chemical Industries, Ltd.). Measurement was carried out on the day after the collection of blood, and the obtained plasma was stored at −20° C. before the measurement.
The blood glucose level at the time of collection of blood was calculated as the percentage to the blood glucose level before administration of the compound under test, and the hypoglycemic effect of the compound under test was evaluated by comparison with the change of the blood glucose level (percentage) of the group of vehicle control at the time of collection of blood. The evaluation results of the hypoglycemic effect are considered to have a significant difference compared with the vehicle control by means of Wilcoxon's rank sum test (P≦0.05)

By melting point is commonly meant the temperature, or range, at which the solid turns liquid. As to `CSc1nc2cc(C)nn2c(Nc2cccc(C#N)c2)c1C#N` [compound 186], the melting point fell in the range of 235 to 238 °C. Besides, in the series on L6 cells, the activity at 10 µg/mL was more than 115% and the activity at 100 µg/mL was more than 115%. For the same molecule, the “Rate of change of blood glucose level” value with KK-Ay/Ta mice (after 3 hours) came out at 80%.
For the molecule `CSc1nc2ccnn2c(NCc2ccncc2)c1C#N` [Compound No. 3, 7-(4-pyridylmethyl)amino-5-methylthiopyrazolo[1,5-a]pyrimidine-6-carbonitrile], the melting point lay in the range of 153 to 154 °C. In the series on L6 cells, the activity at 10 µg/mL is more than 115% and the activity at 100 µg/mL was more than 115%. Also, the “Rate of change of blood glucose level” value with KK-Ay/Ta mice (after 3 hours) amounted to 78%.
The molecule `CSc1nc2ccnn2c(Nc2ccc([N+](=O)[O-])cc2)c1C#N` [compound 200] came in with a melting point of more than 270 °C. In the series on L6 cells, the activity at 10 µg/mL is more than 115% and the activity at 100 µg/mL was more than 115%. For the same molecule, the “Rate of change of blood glucose level” value with KK-Ay/Ta mice (after 3 hours) worked out at 79%.
Consider `CSc1nc2ccnn2c(NCC2OCCO2)c1C#N` [compound 8], for which the melting point lay within 157 to 158 °C. Also, the activity at 100 µg/mL in the series on L6 cells is more than 115%. Moreover, the “Rate of change of blood glucose level” value with KK-Ay/Ta mice (after 6 hours) was determined as 68%.
